Laboratory results from patent publication US11427548B2 (Arvinas Operations, Inc., priority 2015, dated 2022).
Where two headings read alike, the source gives them in different places.

Biological target: T1, Androgen Receptor (Homo sapiens, UniProt P10275)
T1 construct: endogenous in cells; host or cells: VCaP cells
T1 sequence (P10275 1-920): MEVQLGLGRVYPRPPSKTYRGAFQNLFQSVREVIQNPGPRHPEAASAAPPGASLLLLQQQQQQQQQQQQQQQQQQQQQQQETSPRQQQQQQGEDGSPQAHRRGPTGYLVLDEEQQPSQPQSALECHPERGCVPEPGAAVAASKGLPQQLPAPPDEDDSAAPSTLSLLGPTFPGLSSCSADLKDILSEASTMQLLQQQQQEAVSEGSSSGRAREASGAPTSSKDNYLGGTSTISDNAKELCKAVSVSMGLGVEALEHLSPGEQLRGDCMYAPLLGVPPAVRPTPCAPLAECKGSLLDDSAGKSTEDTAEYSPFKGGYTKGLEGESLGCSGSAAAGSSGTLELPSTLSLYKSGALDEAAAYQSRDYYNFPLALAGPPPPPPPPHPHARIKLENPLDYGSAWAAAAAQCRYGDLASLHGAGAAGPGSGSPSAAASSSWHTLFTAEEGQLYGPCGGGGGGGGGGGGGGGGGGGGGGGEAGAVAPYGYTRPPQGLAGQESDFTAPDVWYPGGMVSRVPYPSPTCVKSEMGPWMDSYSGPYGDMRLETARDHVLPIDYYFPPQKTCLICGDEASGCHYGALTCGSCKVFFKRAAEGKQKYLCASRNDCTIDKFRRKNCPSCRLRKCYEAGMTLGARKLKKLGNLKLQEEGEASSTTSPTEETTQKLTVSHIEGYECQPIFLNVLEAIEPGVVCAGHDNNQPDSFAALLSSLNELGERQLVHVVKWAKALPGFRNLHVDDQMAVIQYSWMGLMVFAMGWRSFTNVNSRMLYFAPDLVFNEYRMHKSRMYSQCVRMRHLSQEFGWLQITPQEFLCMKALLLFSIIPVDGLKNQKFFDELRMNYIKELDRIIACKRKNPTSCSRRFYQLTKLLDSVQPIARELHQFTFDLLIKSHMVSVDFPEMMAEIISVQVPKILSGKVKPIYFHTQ
Assay: Androgen Receptor ELISA assay (PathScan AR ELISA) in VCaP cells: AR degradation, Dmax and DC50
Format: cell-based
Description: 1. Androgen Receptor ELISA Assay.
The protocols used with VCaP cells are described below. The androgen receptor ELISA assay was performed using PathScan AR ELISA (Cell Signaling Catalog #12850) according to the following assay steps:
VCaP cells are seeded at 30,000 cells/well at a volume of 200 μL/well in VCaP assay medium [Phenol red free RPMI (Gibco Cat #11835-030); 5% Charcoal Stripped (Dextran treated) FBS (Omega Scientific, Cat #FB-04); Pen/Strep Life Technologies (Gibco Cat #: 10378-016); 0.1 nM R1881 (Sigma, Cat #R0908) is added upon the start of the assay, not during initial plating of the cells) in Corning 3904 plates. The cells are grown for a minimum of 3 days.
First, cells are dosed with compounds diluted in 0.1% DMSO—use a polypropylene plate according to the following protocol: (1)(i) make 1000× stock plate in DMSO; (ii) 20 mM stock diluted 1/6.7 with DMSO (5 μL+28.3 μL DMSO)=3 mM into row H; (iii) perform serial dilutions in ½ log doses (10 μL of PROTAC+20 μL DMSO) from row H towards row B. Reserve row A for DMSO; (iv) 7 doses total (final concentration in this 1000× plate will be 3 mM, 1 mM, 333 μM, 111 μM, etc). (2)(i) Make 10× stock plate in media; (ii) transfer 2.5 μL of the 1000× stock to a new 10× stock plate (use 12 channel pipet, start at A (DMSO control) work thru H. When 247.5 μL of media is added to this plate, it will serve as a 10× stock; (iii) make media+1 nM R1881 for making 10× stock plate; (iv) add 247.5 μL of media with 1 nM R1881 to each well of the 10× stock plate, mix.
Then 22 μL of 10× stock is added to cells and incubated for 24 h. 1× Cell Signaling Cell lysis buffer is made (Catalogue #9803; comes with the kit)—prepare for 50 μL/well. Keep on ice. Media is aspirated, and 50 μL 1× cell lysis buffer/well is added. The cells are placed on ice for 10 minutes. The solution is mixed and transferred to PCR plate, and centrifuged at 4C for 10 minutes at 4000 rpm.
5 μL is transferred to fresh plate (use immediately or freeze −80 C); 115 μL ELISA Dilutant is added (0.15 ug/ml-0.075 ug/ml; comes with the PathScan ELISA).
Add 100 μL/well AR Elisa; cover and shake, 37 C for 2 hrs; dump, tap, wash 4×200 μL ELISA wash buffer; add 100 μL/well mouse AR detection Ab; cover and shake, 37 C for 1 hr; dump, tap, wash 4×200 μL ELISA wash buffer; add 100 μL/well anti-mouse—HRP conjugated Ab (comes with the kit); cover and shake, 37 C for 30 min; allow TMB reagent to come to room temperature; dump, tap, wash 4×200 μL Elisa wash buffer; tap; add 100 μL TMB, shake 5 min—while watching color. Add the stop reagent when light blue color develops. Add 100 μL Stop solution; shake and read at 450 nm.

[1] = read-out: VCaP DC50; VCaP cells; Table 35
[2] = read-out: VCaP DC50; VCaP cells; Table 36
[3] = read-out: VCaP DC50; concentration that caused 50% Androgen Receptor degradation, VCaP cells (Table 32)

Cc1ncsc1-c1ccc([C@H](C)NC(=O)[C@@H]2C[C@@H](O)CN2C(=O)[C@@H](NC(=O)COc2ccc(O[C@H]3CC[C@H](Oc4ccc(N5C(=S)N(c6ccc(C#N)c(C(F)(F)F)c6)C(=O)C5(C)C)cc4)CC3)nc2)C(C)(C)C)cc1 (racemic) [Example 421]
Dmax (VCaP, read-out: VCaP Dmax (%)): 26 to 50% | DC50 [1]: 51 to 500 nM

Cc1nccn1-c1ccc([C@H](C)NC(=O)[C@@H]2C[C@@H](O)CN2C(=O)C(C(C)C)n2cc(OCCCOCCCCCOc3ccc(N4C(=S)N(c5ccc(C#N)c(C(F)(F)F)c5)C(=O)C4(C)C)cc3)cn2)nc1 (mixture of isomers) [Example 423]
Dmax (VCaP, read-out: VCaP Dmax (%)): < 25% | DC50 [1]: > 501 nM

Cc1ncsc1-c1ccc(CNC(=O)[C@@H]2C[C@@H](O)CN2C(=O)[C@@H](C(C)C)n2cc(OCCCOCCCCCOc3ccc(N4C(=S)N(c5ccc(C#N)c(C(F)(F)F)c5)C(=O)C4(C)C)cc3)cn2)nc1 (racemic) [Example 431]
Dmax (VCaP, read-out: VCaP Dmax (%)): < 25% | DC50 [1]: > 501 nM

Cc1ncsc1-c1ccc(CNC(=O)[C@@H]2C[C@@H](O)CN2C(=O)[C@@H](C(C)C)n2cc(OCC#CC#CCOc3ccc(N4C(=S)N(c5ccc(C#N)c(C(F)(F)F)c5)C(=O)C4(C)C)cc3)cn2)cc1 (racemic) [Example 616, 1-(2-(4-((6-(4-(3-(4-cyano-3-(trifluoromethyl)phenyl)-5,5-dimethyl-4-oxo-2-thioxoimidazolidin-1-yl)phenoxy)hexa-2,4-diyn-1-yl)oxy)-1H-pyrazol-1-yl)-3-methylbutanoyl)-4-hydroxy-N-(4-(4-methylthiazol-5-yl)benzyl)pyrrolidine-2-carboxamide]
Dmax (VCaP, read-out: VCaP Dmax (%)): < 25% | DC50 [2]: > 501 nM

Cc1ncsc1-c1ccc(CNC(=O)[C@@H]2C[C@@H](O)CN2C(=O)[C@@H](NC(=O)COC(C)CCCOc2ccc(-c3ccc(N4C(=S)N(c5ccc(C#N)c(C(F)(F)F)c5)C(=O)C4(C)C)cc3)cc2)C(C)(C)C)cc1 (stereo in doubt) [Example 147, (2S,4R)-1-[(2S)-2-(2-{[(2S)-5-[4-(4-{3-[4-cyano-3-(trifluoromethyl)phenyl]-5,5-dimethyl-4-oxo-2-sulfanylideneimidazolidin-1-yl}phenyl)phenoxy]pentan-2-yl]oxy}acetamido)-3,3-dimethylbutanoyl]-4-hydroxy-N-{[4-(4-methyl-1,3-thiazol-5-yl)phenyl]methyl}pyrrolidine-2-carboxamide]
Dmax (VCaP, read-out: VCaP Dmax (%)): > 71% | DC50 [3]: < 50 nM

Cc1ncsc1-c1ccc(CNC(=O)[C@@H]2C[C@@H](O)CN2C(=O)[C@@H](NC(=O)COC(C)CCCOc2ccc(-c3ccc(N4C(=S)N(c5ccc(C#N)c(C(F)(F)F)c5)C(=O)C4(C)C)cc3)cc2)C(C)(C)C)cc1 (stereo in doubt) [Example 148, (2S,4R)-1-[(2S)-2-(2-{[(2R)-5-[4-(4-{3-[4-cyano-3-(trifluoromethyl)phenyl]-5,5-dimethyl-4-oxo-2-sulfanylideneimidazolidin-1-yl}phenyl)phenoxy]pentan-2-yl]oxy}acetamido)-3,3-dimethylbutanoyl]-4-hydroxy-N-{[4-(4-methyl-1,3-thiazol-5-yl)phenyl]methyl}pyrrolidine-2-carboxamide]
Dmax (VCaP, read-out: VCaP Dmax (%)): > 71% | DC50 [3]: < 50 nM

Cc1ncsc1-c1ccc(CNC(=O)[C@@H]2C[C@@H](O)CN2C(=O)C(C(C)C)n2cc(Oc3cccc(OCCCCCOc4ccc(N5C(=S)N(c6ccc(C#N)c(C(F)(F)F)c6)C(=O)C5(C)C)cc4)c3)cn2)cc1 (stereo in doubt) [Example 602, (2S,4R)-1-((R)-2-(4-(3-((5-(4-(3-(4-cyano-3-(trifluoromethyl)phenyl)-5,5-dimethyl-4-oxo-2-thioxoimidazolidin-1-yl)phenoxy)pentyl)oxy)phenoxy)-1H-pyrazol-1-yl)-3-methylbutanoyl)-4-hydroxy-N-(4-(4-methylthiazol-5-yl)benzyl)pyrrolidine-2-carboxamide]
DC50 [2]: > 501 nM

Cc1ncsc1-c1ccc([C@H](C)NC(=O)[C@@H]2C[C@H](O)CN2C(=O)[C@@H](NC(=O)COCCN2CCN(c3ccc(C(=O)N[C@H]4C(C)(C)[C@H](Oc5ccc(C#N)c(Cl)c5)C4(C)C)cn3)CC2)C(C)(C)C)cc1 (stereo in doubt) [Example 608, N-((1r,3r)-3-(3-chloro-4-cyanophenoxy)-2,2,4,4-tetramethylcyclobutyl)-6-(4-(2-(2-(((S)-1-((2S,4R)-4-hydroxy-2-(((S)-1-(4-(4-methylthiazol-5-yl)phenyl)ethyl)carbamoyl)pyrrolidin-1-yl)-3,3-dimethyl-1-oxobutan-2-yl)amino)-2-oxoethoxy)ethyl)piperazin-1-yl)nicotinamide]
DC50 (VCaP cells; Table 36; read-out: VCaP DC50): < 50 nM | Dmax (VCaP, VCaP cells; Table 36; read-out: VCaP Dmax (%)): > 71%

Cc1nccn1-c1ccc([C@H](C)NC(=O)[C@@H]2C[C@@H](O)CN2C(=O)C(C(C)C)n2cc(OCCCOCCCCCOc3ccc(N4C(=S)N(c5ccc(C#N)c(C(F)(F)F)c5)C(=O)C4(C)C)cc3)cn2)cc1 (stereo in doubt) [Example 612, (2S,4R)-1-((R)-2-(4-(3-((5-(4-(3-(4-cyano-3-(trifluoromethyl)phenyl)-5,5-dimethyl-4-oxo-2-thioxoimidazolidin-1-yl)phenoxy)pentyl)oxy)propoxy)-1H-pyrazol-1-yl)-3-methylbutanoyl)-4-hydroxy-N-((S)-1-(4-(2-methyl-1H-imidazol-1-yl)phenyl)ethyl)pyrrolidine-2-carboxamide]
VCaP Dmax (%) (VCaP cells; Table 36): _+ | DC50 [2]: > 501 nM

Cc1ncsc1-c1ccc(CNC(=O)[C@@H]2C[C@@H](O)CN2C(=O)[C@@H](NC(=O)COCCCOCCC(O)CCOc2ccc(N3C(=S)N(c4ccc(C#N)c(C(F)(F)F)c4)C(=O)C3(C)C)cc2)C(C)(C)C)cc1 (stereo partly drawn) [Example 13, (2S,4R)-1-[(2S)-2-[2-(3-{[5-(4-{3-[4-cyano-3-(trifluoromethyl)phenyl]-5,5-dimethyl-4-oxo-2-sulfanylideneimidazolidin-1-yl}phenoxy)-3-hydroxypentyl]oxy}propoxy)acetamido]-3,3-dimethylbutanoyl]-4-hydroxy-N-{[4-(4-methyl-1,3-thiazol-5-yl)phenyl]methyl}pyrrolidine-2-carboxamide]
Dmax (VCaP, read-out: VCaP Dmax (%)): 26 to 50% | DC50 (read-out: VCaP DC50; concentration that caused 50% Androgen Receptor degradation, VCaP cells): < 50 nM
